This is an account of results in patent publication US9045491B2, “Thienyl [3,2-D] pyrimidin-4-one compounds, preparation method, pharmaceutical compositions and use thereof” (SHANGHAI INSTITUTE OF MATERIA MEDICA, CHINESE ACADEMY OF …, priority 2011, dated 2015).

Holding throughout (type): biochemical
Assay [1] addresses T1, human DPP 8 (Homo sapiens, UniProt Q6V1X1).
T1 construct: made in house; host or cells: insect cells, baculovirus Bac-to-Bac
Kind of assay: DPP 8 activity screening (Ala-Pro-AMC fluorescence). To be noted: N.I. = No Inhibition. An outline of the steps:
(§1)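 Insect-cell baculovirus-expressed human enzymes hydrolyse Ala-Pro-AMC; AMC release monitored kinetically as fluorescence rate (ex 355/em 460 nm). Primary screen at a single concentration (e.g. 20 μg/mL); dose–response fitted to variable-slope sigmoid with bottom/top fixed at 0 and 100.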

In assay [2] the target is T2, human DPP IV (Homo sapiens, UniProt P27487).
T2 construct: extracellular fragment of protease DPP IV (aa29-766); made in house; host or cells: baculovirus expression system Bac-to-Bac
T2 sequence (P27487 29-766): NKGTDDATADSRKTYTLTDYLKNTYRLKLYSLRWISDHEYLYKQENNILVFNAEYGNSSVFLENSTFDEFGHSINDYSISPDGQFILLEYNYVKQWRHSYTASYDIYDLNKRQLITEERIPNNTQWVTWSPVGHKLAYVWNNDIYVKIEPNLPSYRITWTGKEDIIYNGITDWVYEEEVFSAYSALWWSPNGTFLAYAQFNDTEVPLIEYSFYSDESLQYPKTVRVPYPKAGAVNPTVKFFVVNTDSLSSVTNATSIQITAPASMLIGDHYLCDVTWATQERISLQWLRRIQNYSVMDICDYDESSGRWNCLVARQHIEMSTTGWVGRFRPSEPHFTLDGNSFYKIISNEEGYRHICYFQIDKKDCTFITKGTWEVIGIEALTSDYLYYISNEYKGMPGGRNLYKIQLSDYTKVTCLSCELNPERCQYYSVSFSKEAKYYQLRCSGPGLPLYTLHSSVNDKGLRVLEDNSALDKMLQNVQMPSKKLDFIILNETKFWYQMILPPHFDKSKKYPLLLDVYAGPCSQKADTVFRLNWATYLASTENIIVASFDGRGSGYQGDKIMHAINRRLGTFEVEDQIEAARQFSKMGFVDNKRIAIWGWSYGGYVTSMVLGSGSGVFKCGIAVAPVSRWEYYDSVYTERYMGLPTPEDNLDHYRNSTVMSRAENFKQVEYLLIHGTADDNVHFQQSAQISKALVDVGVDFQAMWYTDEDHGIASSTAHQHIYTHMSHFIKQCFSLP
In words: DPP IV activity screening (Ala-Pro-AMC fluorescence). An outline of the steps: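 DPP IV activity is taken as the linear rate of fluorescence change at 460 nm. Samples are dissolved in DMSO and screened at a single concentration (e.g. 20 μg/mL). Dose-response data are fit to a variable-slope sigmoidal model with bottom and top fixed at 0 and 100.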

Assay [3] has as its target T3, FAP (Homo sapiens, UniProt Q12884).
T3 sequence (Q12884 1-760): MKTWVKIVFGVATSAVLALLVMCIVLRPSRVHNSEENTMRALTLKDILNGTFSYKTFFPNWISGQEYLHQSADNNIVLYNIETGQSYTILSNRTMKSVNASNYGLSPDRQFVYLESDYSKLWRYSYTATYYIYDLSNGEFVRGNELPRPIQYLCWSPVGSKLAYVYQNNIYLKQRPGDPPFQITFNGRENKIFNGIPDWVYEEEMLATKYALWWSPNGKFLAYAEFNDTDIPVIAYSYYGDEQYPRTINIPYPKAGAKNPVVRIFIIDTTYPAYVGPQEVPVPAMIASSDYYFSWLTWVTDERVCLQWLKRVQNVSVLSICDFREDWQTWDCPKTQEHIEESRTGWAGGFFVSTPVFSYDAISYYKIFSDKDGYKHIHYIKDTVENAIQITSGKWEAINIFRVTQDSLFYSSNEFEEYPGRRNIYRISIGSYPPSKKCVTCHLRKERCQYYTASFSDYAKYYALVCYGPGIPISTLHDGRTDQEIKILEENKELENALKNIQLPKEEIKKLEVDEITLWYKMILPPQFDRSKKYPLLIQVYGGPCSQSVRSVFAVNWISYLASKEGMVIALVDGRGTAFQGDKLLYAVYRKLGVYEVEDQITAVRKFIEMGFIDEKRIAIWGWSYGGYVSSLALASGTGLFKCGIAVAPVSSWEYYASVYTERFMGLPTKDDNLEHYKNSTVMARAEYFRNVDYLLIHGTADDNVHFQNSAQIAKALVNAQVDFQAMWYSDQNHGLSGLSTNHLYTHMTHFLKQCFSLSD
Kind of assay: FAP inhibition (Table 1). As to conditions: N.I. = No Inhibition.

The target in assay [4] is T4, Human DPP 9 (Homo sapiens, UniProt Q86TI2).
T4 construct: made in house; host or cells: insect cells, baculovirus Bac-to-Bac
T4 sequence (Q86TI2 whole entry): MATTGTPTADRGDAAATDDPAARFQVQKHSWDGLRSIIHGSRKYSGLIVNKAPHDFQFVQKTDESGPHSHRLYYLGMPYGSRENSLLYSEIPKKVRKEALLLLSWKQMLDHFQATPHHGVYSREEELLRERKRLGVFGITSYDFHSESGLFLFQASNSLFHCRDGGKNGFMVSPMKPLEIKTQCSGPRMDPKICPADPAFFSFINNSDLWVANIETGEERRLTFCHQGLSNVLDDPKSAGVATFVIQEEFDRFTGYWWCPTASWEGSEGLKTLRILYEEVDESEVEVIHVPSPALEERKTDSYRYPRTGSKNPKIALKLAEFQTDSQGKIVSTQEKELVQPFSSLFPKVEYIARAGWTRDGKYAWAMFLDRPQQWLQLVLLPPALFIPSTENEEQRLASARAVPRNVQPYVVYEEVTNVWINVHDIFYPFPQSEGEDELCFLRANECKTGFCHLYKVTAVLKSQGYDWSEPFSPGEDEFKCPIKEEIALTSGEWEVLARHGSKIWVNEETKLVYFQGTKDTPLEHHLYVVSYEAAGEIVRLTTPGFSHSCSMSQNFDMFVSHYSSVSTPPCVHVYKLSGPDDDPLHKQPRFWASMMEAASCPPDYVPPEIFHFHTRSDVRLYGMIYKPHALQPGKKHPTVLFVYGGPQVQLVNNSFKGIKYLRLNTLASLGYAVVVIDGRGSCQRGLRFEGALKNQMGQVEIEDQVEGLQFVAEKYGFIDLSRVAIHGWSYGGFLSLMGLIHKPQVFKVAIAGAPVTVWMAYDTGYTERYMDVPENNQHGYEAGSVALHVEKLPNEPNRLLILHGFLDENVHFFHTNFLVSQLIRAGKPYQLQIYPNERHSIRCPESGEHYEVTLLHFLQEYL
In words: DPP 9 activity screening (Ala-Pro-AMC fluorescence). To be noted: N.I. = No Inhibition. An outline of the steps:
as §1

Assay [5] addresses dipeptidyl peptidase 7 (DPP 7) (Homo sapiens, UniProt Q9UHL4). In words: DPP 7 activity screening. As to conditions: N.I. = No Inhibition. An outline of the steps:
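Sample dissolved in DMSO, final DMSO kept at a level not affecting activity; tested at a single concentration from preliminary screening (e.g. 20 μg/mL). Dose-response data fitted to sigmoidal variable-slope model with bottom and top fixed at 0 and 100.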

T1 sequence (Q6V1X1 whole entry): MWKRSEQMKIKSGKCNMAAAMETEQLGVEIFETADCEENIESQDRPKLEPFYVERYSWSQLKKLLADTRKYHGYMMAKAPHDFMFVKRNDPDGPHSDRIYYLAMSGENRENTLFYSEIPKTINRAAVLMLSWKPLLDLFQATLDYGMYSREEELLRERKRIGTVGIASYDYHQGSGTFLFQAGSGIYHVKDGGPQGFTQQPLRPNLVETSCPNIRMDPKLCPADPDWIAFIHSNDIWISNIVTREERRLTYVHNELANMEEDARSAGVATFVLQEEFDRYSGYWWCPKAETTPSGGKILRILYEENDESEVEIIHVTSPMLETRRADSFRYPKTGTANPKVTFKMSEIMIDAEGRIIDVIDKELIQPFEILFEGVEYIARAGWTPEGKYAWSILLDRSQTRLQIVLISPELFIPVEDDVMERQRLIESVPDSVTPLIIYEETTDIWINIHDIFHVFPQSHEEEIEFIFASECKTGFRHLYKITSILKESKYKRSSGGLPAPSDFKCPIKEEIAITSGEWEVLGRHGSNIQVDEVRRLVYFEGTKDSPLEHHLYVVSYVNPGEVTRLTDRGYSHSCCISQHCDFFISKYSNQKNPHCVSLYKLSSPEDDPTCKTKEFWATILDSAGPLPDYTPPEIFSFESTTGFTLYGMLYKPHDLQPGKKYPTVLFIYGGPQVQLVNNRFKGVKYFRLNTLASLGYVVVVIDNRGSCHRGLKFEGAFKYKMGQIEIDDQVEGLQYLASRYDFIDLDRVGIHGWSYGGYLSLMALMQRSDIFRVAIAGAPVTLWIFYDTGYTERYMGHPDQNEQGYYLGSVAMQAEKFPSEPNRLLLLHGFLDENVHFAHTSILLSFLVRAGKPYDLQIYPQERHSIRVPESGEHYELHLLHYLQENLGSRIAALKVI

`N#Cc1ccccc1Cn1c(N2CCC[C@@H](N)C2)nc2cc(C(=O)NCc3cccc(C(F)(F)F)c3)sc2c1=O` [Compound 120, (R)-2-(3-aminopiperidin-1-yl)-3-(2-cyanobenzyl)-4-oxo-N-(3-(trifluoromethyl)benzyl)-3,4-dihydrothieno[3,2-d]pyrimidine-6-carboxamide]: the half-maximal inhibitory concentration (IC50) in assay [1] was 53.8 µM; in assay [2] it was 0.0286 µM; in assay [3] it was 87.4 µM; in assay [4] it was 49.7 µM. For the same compound, the “DPP 7 IC50” value in assay [5] is “N.I”.
`N#Cc1ccccc1Cn1c(N2CCC[C@@H](N)C2)nc2c(CO)csc2c1=O` [Compound 43, (R)-2-((2-(3-aminopiperidin-1-yl)-7-(hydroxymethyl)-4-oxothieno[3,2-d]-pyrimidin-3(4H)-yl)methyl)benzonitrile]: in assay [1], the “DPP 8 IC50” value is on record as “N.I”. The compound further gave a concentration for half-maximal inhibition (IC50) in assay [2] of 0.0189 µM. Moreover, in assay [3], the “FAP IC50” value is “N.I”. Further, in assay [4], the “DPP 9 IC50” value was “N.I”. Further, in assay [5], the “DPP 7 IC50” value is given as “N.I”.
With `N#Cc1ccccc1Cn1c(N2CCC[C@@H](N)C2)nc2cc(C(=O)N3CCCC3)sc2c1=O` [Compound 107, (R)-2-((2-(3-aminopiperidin-1-yl)-4-oxo-6-(pyrrolidine-1-carbonyl)thieno-[3,2-d]pyrimidin-3(4H)-yl)methyl)-benzonitrile], the IC50 stood at 39.7 µM in assay [1], 0.0241 µM in assay [2], 98.6 µM in assay [3] and 122 µM in assay [4]. In assay [5], the “DPP 7 IC50” value is reported as “N.I”.
Take `N#Cc1ccccc1Cn1c(N2CCC[C@@H](N)C2)nc2c(C(=O)NCc3ccc(C(F)(F)F)cc3)csc2c1=O` [Compound 68, (R)-2-(3-aminopiperidin-1-yl)-3-(2-cyanobenzyl)-4-oxo-N-(4-(trifluoromethyl)benzyl)-3,4-dihydrothieno[3,2-d]pyrimidine-7-carboxamide]: the IC50 in assay [1] was found to be 8.16 µM; in assay [2], 0.023 µM; in assay [3] it was 8.78 µM; in assay [4], 100 µM; in assay [5], 145 µM.
In the case of `CC(C)CCNC(=O)c1cc2nc(N3CCC[C@@H](N)C3)n(Cc3ccccc3C#N)c(=O)c2s1` [Compound 121, (R)-2-(3-aminopiperidin-1-yl)-3-(2-cyanobenzyl)-N-isopentyl-4-oxo-3,4-dihydrothieno[3,2-d]pyrimidine-6-carboxamide], the “DPP 8 IC50” value in assay [1] is reported as “N.I”. Besides, the concentration for half-maximal inhibition (IC50) in assay [2] stood at 0.0269 µM. In assay [3], the “FAP IC50” value is given as “N.I”. Further, in assay [4], the “DPP 9 IC50” value is on record as “N.I”. Further, in assay [5], the “DPP 7 IC50” value is “N.I”.
In the case of `CCNC(=O)c1cc2nc(N3CCC[C@@H](N)C3)n(Cc3ccccc3C#N)c(=O)c2s1` [Compound 113, (R)-2-(3-aminopiperidin-1-yl)-3-(2-cyanobenzyl)-N-ethyl-4-oxo-3,4-dihydrothieno[3,2-d]pyrimidine-6-carboxamide], the IC50 in assay [1] came out at 166 µM; in assay [2], 0.0187 µM; in assay [3], 173 µM; in assay [4], 303 µM. Moreover, in assay [5], the “DPP 7 IC50” value is recorded as “N.I”.
Consider `N#Cc1ccccc1Cn1c(N2CCC[C@@H](N)C2)nc2cc(C(=O)NC3CCCCC3)sc2c1=O` [Compound 119, (R)-2-(3-aminopiperidin-1-yl)-3-(2-cyanobenzyl)-N-cyclohexyl-4-oxo-3,4-dihydrothieno[3,2-d]pyrimidine-6-carboxamide], for which the half-maximal inhibitory concentration (IC50) in assay [1] was determined as 94 µM; in assay [2], 0.0206 µM; in assay [3], 113 µM. The “DPP 9 IC50” value in assay [4] was “N.I”. The “DPP 7 IC50” value in assay [5] is recorded as “N.I”.
For the compound `CCCCNC(=O)c1csc2c(=O)n(Cc3ccccc3C#N)c(N3CCC[C@@H](N)C3)nc12` [Compound 77, (R)-2-(3-aminopiperidln-1-yl)-N-butyl-3-(2-cyanobenzyl)-4-oxo-3,4-dihydrothieno[3,2-d]pyrimidine-7-carboxamide], the IC50 in assay [1] was 49.4 µM; in assay [2] it was 0.0111 µM; in assay [3] it was 45.2 µM; in assay [5] it was 30 µM. Also, in assay [4], the “DPP 9 IC50” value is on record as “N.I”.
On to `CC(C)CCNC(=O)c1csc2c(=O)n(Cc3ccccc3C#N)c(N3CCC[C@@H](N)C3)nc12` [Compound 78, (R)-2-(3-aminopiperidin-1-yl)-3-(2-cyanobenzyl)-N-isopentyl-4-oxo-3,4-dihydrothieno[3,2-d]pyrimidine-7-carboxamlde], for which the half-maximal inhibitory concentration (IC50) in assay [1] was 60.4 µM; in assay [2], 0.0288 µM; in assay [3], 64.3 µM; in assay [4], 407 µM; in assay [5] it was 27.1 µM.
Take `CC(C)CNC(=O)c1csc2c(=O)n(Cc3ccccc3C#N)c(N3CCC[C@@H](N)C3)nc12` [Compound 79, (R)-2-(3-aminopiperidin-1-yl)-3-(2-cyanobenzyl)-N-isobutyl-4-oxo-3,4-dihydrothieno[3,2-d]pyrimidine-7-carboxamide]: the half-maximal inhibitory concentration (IC50) in assay [1] was 47 µM; in assay [2] it was 0.0151 µM; in assay [3], 40.9 µM; in assay [4] it was 226 µM; in assay [5] it was 357 µM.
As for `N#Cc1ccccc1Cn1c(N2CCC[C@@H](N)C2)nc2cc(C(N)=O)sc2c1=O` [Compound 97, (R)-2-(3-aminopiperidin-1-yl)-3-(2-cyanobenzyl)-4-oxo-3,4-dihydrothieno-[3,2-d]pyrimidine-6-carboxamide], the “DPP 8 IC50” value in assay [1] is “N.I”. The same compound returned an IC50 in assay [2] of 0.0204 µM. Besides, in assay [3], the “FAP IC50” value is listed as “N.I”. Further, the “DPP 9 IC50” value in assay [4] was “N.I”. For the same compound, in assay [5], the “DPP 7 IC50” value is recorded as “N.I”.
Regarding `CCCCNC(=O)c1cc2nc(N3CCC[C@@H](N)C3)n(Cc3ccccc3C#N)c(=O)c2s1` [Compound 117, (R)-2-(3-aminopiperidin-1-yl)-N-butyl-3-(2-cyanobenzyl)-4-oxo-3,4-dihydrothieno[3,2-d]pyrimidine-6-carboxamide], the 50% inhibitory concentration (IC50) in assay [1] was found to be 63.2 µM; in assay [2] it was 0.016 µM; in assay [3] it was 118 µM; in assay [4], 78.5 µM. Also, the “DPP 7 IC50” value in assay [5] is listed as “N.I”.
As to `N#Cc1ccccc1Cn1c(N2CCC[C@@H](N)C2)nc2cc(C(=O)N3CCS(=O)(=O)CC3)sc2c1=O` [Compound 114, (R)-2-((2-(3-aminopiperidin-1-yl)-6-(1,1-dioxidothiomorpholine-4-carbonyl)-4-oxothieno[3,2-d]pyrimidin-3(4H)-yl)-methyl)benzonitrile], the IC50 in assay [1] was found to be 56.2 µM; in assay [2] it was 0.0222 µM; in assay [3], 52.2 µM; in assay [4], 307 µM. Moreover, the “DPP 7 IC50” value in assay [5] was “N.I”.
`CCNC(=O)c1csc2c(=O)n(Cc3ccccc3C#N)c(N3CCC[C@@H](N)C3)nc12` [Compound 71, (R)-2-(3-aminopiperidin-1-yl)-3-(2-cyanobenzyl)-N-ethyl-4-oxo-3,4-dihydrothieno[3,2-d]pyrimidine-7-carboxamide]: the IC50 stood at 26.8 µM in assay [1]; 0.0143 µM in assay [2]; 52.1 µM in assay [3]; 238 µM in assay [4]; 144 µM in assay [5].
For the compound `COC(=O)[C@H](Cc1ccccc1)NC(=O)c1csc2c(=O)n(Cc3ccccc3C#N)c(N3CCC[C@@H](N)C3)nc12` [Compound 67, (S)-methyl 2-(2-((R)-3-aminopiperidin-1-yl)-3-(2-cyanobenzyl)-4-oxo-3,4-dihydrothieno[3,2-d]pyrimidine-7-carboxamido)-3-phenylpropanoate], the IC50 in assay [1] was 24.9 µM; in assay [2] it was 0.0137 µM; in assay [3] it was 28.1 µM; in assay [4], 53 µM. The “DPP 7 IC50” value in assay [5] was “N.I”.

The IC50 is the concentration that gives 50% inhibition.
